{"source": "patent US5719154A", "about": "“Oxazolidinone antibacterial agents having a six-membrane heteroaromatic ring” (priority 1996, dated 1998)", "key": {"[1]": {"system": "S. aureus UC ® No. 9213", "assay": "Murine Assay, in vivo antimicrobial activity (ED50 from mortality ratios) against S. aureus UC No. 9213", "parameters": "species or system Staphylococcus aureus (infected female mice)", "conditions": "oral or subcutaneous, survival six days; for ED50: Staphylococcus aureus, UC9213, 144 h, female mice infected intraperitoneally with S. aureus UC No. 9213, drug one hour and five hours after infection, probit analysis", "procedure": "Antimicrobial activity is tested in vivo using the Murine Assay procedure. Groups of female mice (six mice weighing 18-20 grams each) are injected intraperiteneally with bacteria which are thawed just prior to use and suspended in brain heart infusion with 4% brewers yeast (Staphylococcus aureus) or brain heart infusion (Streptecoccus species). Antibiotic treatment at six dose levels per drug is administered one hour and five hours after infection by either oral intubation or subcutaneous routes. Survival is observed daily for six days. ED50 values based on mortality ratios are calculated using probit analysis. The subject compounds are compared against drug U-100592 as controls. […] The detailed information with respect to the structure and in vivo efficacy evaluations of U-100592 is summarized in Upjohn Oxazolidinone Antibacterial Agents, Posters Presented at the 35th Interscience Conference on Antimicrobial Agents and Chemotherapy, San Francisco, 17-20 September 1995."}, "[2]": {"system": "bacteria (Staphylococcus aureus or Streptecoccus species)", "conditions": "extensively evaluated in this animal model versus vancomycin; cited from earlier work"}}, "data": [{"smiles": "CC(=O)NC[C@H]1CN(c2ccc(N3CCN(c4cccnn4)CC3)c(F)c2)C(=O)O1", "note": "[Example 3]", "values": [{"measurement": "ED50", "setting": "[1]", "result": 8.8, "unit": "mg/kg"}]}, {"smiles": "CC(=O)NC[C@H]1CN(c2ccc(N3CCN(c4ccc(C)nn4)CC3)c(F)c2)C(=O)O1", "note": "[Example 4]", "values": [{"measurement": "ED50", "setting": "[1]", "result": 6.3, "unit": "mg/kg"}]}, {"smiles": "CC(=O)NC[C@H]1CN(c2ccc(N3CCN(c4ncccn4)CC3)c(F)c2)C(=O)O1", "note": "[Example 1]", "values": [{"measurement": "ED50", "setting": "[1]", "result": 6.2, "unit": "mg/kg"}]}, {"smiles": "CC(=O)NC[C@H]1CN(c2ccc(N3CCN(C(=O)CO)CC3)c(F)c2)C(=O)O1", "note": "[Example U-100592, reference compound]", "values": [{"measurement": "U-100592 ED50", "setting": "[1]; comparator control for the Example of the same line, female mice, S. aureus UC No. 9213, 8640 min", "result": 8.7, "unit": "mg/kg"}, {"measurement": "potency versus vancomycin", "setting": "[2]", "result": "equipotent to vancomycin"}]}, {"smiles": "CC(=O)NC[C@H]1CN(c2ccc(N3CCN(c4ccncn4)CC3)c(F)c2)C(=O)O1", "note": "[Example 2]", "values": [{"measurement": "ED50", "setting": "[1]", "result": 4.4, "unit": "mg/kg"}]}]}
